Molecules are shown by their SMILES. “And” between values parts separate entries of the source, which are not always exact repeats. Equal entries are not always repeated.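 Cells were grown in 96-well plates and exposed to each compound for 48 hours at five concentrations; endpoints were interpolated linearly between bracketing concentrations, or set to the highest concentration if not reached. GI50 marks 50% less growth. At the TGI there is no net growth.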

For this assay, the system named is MDA-MB-468 breast. Kind of assay: growth of human tumour cells (NCI), 48 h.
In the case of `C[C@@H](Oc1cc(-c2cnn(C3CCNCC3)c2)cnc1N)c1c(Cl)cc(F)cc1Cl`, the GI50 is 1.31 µM and the TGI stood at 2.92 µM. For `COc1cccc(-c2nn(-c3ccccc3)cc2-c2ccnc(NCCCNS(=O)(=O)c3ccc(C(F)(F)F)cc3)c2)c1`, the GI50 was 3.11 µM and the TGI was greater than 100 µM. In the same order, the values of `CC(C)(C)OC(=O)N1Cc2cc3ccccc3nc2C1CO` (configuration not stated) are greater than 100 µM and greater than 100 µM. As to `CN(c1ccc(F)cc1)S(=O)(=O)c1ccc(-c2cnc(C3CC3)o2)cc1`, the GI50 is 0.0544 µM and the TGI worked out at 8.98 µM.

Consider `Nc1no[n+]([O-])c1-c1nnc2c(n1)-c1ccccc1C2=O`, for which the GI50 was 2.19 µM and the TGI turned out to be 5.64 µM.

For `CC[Si](CC)(CC)OC1[C@@H](O[Si](CC)(CC)CC)[C@@H](CNC(=O)NC)O[C@H]1n1cnc2c(NC(=O)Nc3ccccc3)ncnc21` (some centres not stated), the GI50 was 4.24 µM and the TGI stood at 57.4 µM. The like results for `CCOC(=O)c1cc(C(=O)c2cc(OC)c(OC)c(OC)c2)n2ccc(-c3cc[n+](CC(=O)c4cc(OC)c(OC)c(OC)c4)cc3)cc12` were, in that order, 1.94 µM and 3.81 µM.

For `NC(Cc1c[nH]c2cccc(F)c12)C(=O)O` (configuration not stated), the GI50 is 50.8 µM and 494 µM; the TGI worked out at 2050 µM. As for `C=C1C(=O)O[C@H]2[C@H]1CC/C(COC(=O)N[C@H](Cc1c[nH]c3ccccc13)C(=O)OC)=C\CC[C@@]1(C)O[C@@H]21`, the GI50 was 1.02 µM and the TGI was determined as 3.92 µM. For the compound `Cc1nn(-c2ccccc2)c2nc(C)n(-c3ccc(Br)cc3)c(=O)c12`, the GI50 is 0.476 µM and the TGI was determined as 53 µM. In the same order, the values of `O=C(CCl)Nc1ccc(Cc2ccc(NC(=O)CCl)cc2)cc1` are 2.03 µM and 5.57 µM.

Consider `O=C(CC1Sc2ccccc2NC1=O)NNc1ccc(F)cc1` (configuration not stated), for which the GI50 was greater than 100 µM and the TGI was greater than 100 µM. On to `CCOC(=O)c1cc2c(n1Cc1cc(OC)cc(OC)c1)-c1oncc1CC2`, for which the GI50 is 0.0364 µM and the TGI came out at 0.268 µM. In the same order, the values of `NCCCNc1nc2ccccc2c2c(=O)c3cc(F)cc(Cl)c3sc12` are 1.69 µM and 3.71 µM. The like results for `CC1(C)CN(CCNc2nccc(-c3c(-c4cccc(O)c4)nc4sccn34)n2)S(=O)(=O)N1` were, in that order, 7.03 µM and greater than 33.2 µM.

In the case of `CCN(CC)CCCNc1cc(OC)c(OC)c2cccnc12`, the GI50 was 3.85 µM and the TGI came to 14.6 µM. The like results for `CCC(=C(c1ccc(OCCN2CCCC2)cc1)c1ccc(OCCN2CCCC2)cc1)c1ccc(Cl)cc1` were, in that order, 0.533 µM and 1.07 µM. In the same order, the values of `CC1(C)CC[C@]2(CO)CC[C@]3(C)C(=CC[C@@H]4[C@@]5(C)CCNCC(C)(C)[C@@H]5CC[C@]43C)[C@@H]2C1` are 1.8 µM and 3.79 µM. On to `Cn1cc(-c2nc(-c3cn(C)c4ncccc34)cs2)c2ccccc21`, for which the GI50 was 0.169 µM and the TGI turned out to be 0.719 µM.

Consider `COc1ccc(NC(=O)c2cccc(C3CCc4c(cc(OC)c(OC)c4OC)O3)c2)cc1` (configuration not stated), for which the GI50 is 2.6 µM and the TGI was greater than 100 µM. In the case of `O=c1[nH]c2ccccc2n1C1CCN(CCOc2ccccc2)CC1`, the GI50 is 6.25 µM and the TGI turned out to be 57.8 µM. In the same order, the values of `CCN(CC)CCCC(C)Nc1ccnc(/C=C/c2ccc(Cl)cc2)c1` (configuration not stated) are 1.45 µM and 2.86 µM. In the same order, the values of `CC[C@H](CO)Nc1ccc2ncc(C#Cc3cncc(C(=O)Nc4ccc(CN5CCN(C)CC5)c(C(F)(F)F)c4)c3)n2n1` are 0.126 µM and 0.376 µM.

`CN(C)C/C=C/C(=O)Nc1cc2c(Nc3cccc(Cl)c3F)ncnc2cc1OCCOC(F)F`: the GI50 was less than 0.01 µM. For the compound `COc1ccc2nc3ccccc3c(NCc3ccccc3)c2c1`, the GI50 is 1.77 µM and the TGI was 4.05 µM.

Turning to `CN1CCN(c2ccc(Nc3nc(NCCCNS(=O)(=O)c4ccc(F)cc4)c4sccc4n3)cc2)CC1`, the GI50 was 10.2 µM and the TGI turned out to be 22.6 µM.

`COc1cc(NCCC2CCCCN2)c2ncccc2c1OC` (configuration not stated): the GI50 is 2.07 µM and the TGI was determined as 4.18 µM. The like results for `CCC(C(=O)[C@@H](C)[C@@H](O)[C@H](C)[C@@H]1O[C@@H]([C@@H](CC)C(=O)ONC(=O)c2ccccc2)CC[C@@H]1C)[C@H]1O[C@]2(C=CC(=O)[C@]3(CC[C@@](C)([C@H]4CC[C@](O)(CC)[C@H](C)O4)O3)O2)[C@H](C)C[C@@H]1C` (some centres not stated) were, in that order, 0.0992 µM and 0.979 µM. In the same order, the values of `CCCCC[C@H]1C/C=C2/C(=O)C(Cl)=C[C@@H]2C/C=C\CCCC(=O)O1` are 0.357 µM and 1.04 µM. In the same order, the values of `COc1cc(/C=C/c2ccnc3ccccc23)cc(OC)c1OC` are 1.19 µM and 5.67 µM. Regarding `Nc1nc(N)c(-c2ccc(Cl)c(Cl)c2)c(CP(Cl)(Cl)(Cl)Br)n1`, the GI50 is 7.45 µM and the TGI was 36.1 µM. In the same order, the values of `C=CCN1C(=O)[C@]2(SC1=S)[C@H](c1cccc(Cl)c1)CN(C)[C@]21C(=O)NC2C=CC(Cl)=C[C@H]21` (some centres not stated) are 3.24 µM and 14.3 µM. As to `Cc1ccc(NC2=CC(=O)C(=O)c3ccccc32)cc1`, the GI50 was 1.97 µM and the TGI stood at 5.74 µM. The like results for `CCOC(=O)c1cc2c(n1Cc1ccccc1OC)-c1oncc1CCC2` were, in that order, 2.95 µM and greater than 100 µM. In the same order, the values of `C=C1C(=O)O[C@H]2[C@H]1CC/C(COC(=O)/C=C\C(=O)NCc1ccc(Cn3c(=O)sn(-c4ccc(Cl)cc4)c3=O)cc1)=C\CC[C@@]1(C)O[C@@H]21` are 0.568 µM and 1.37 µM.

`O=C(c1ccc(Nc2nccc(NCCCCNc3ccnc4cc(Cl)ccc34)n2)cc1)N1CCCCC1`: the GI50 is 1.47 µM and the TGI came out at 3.47 µM. Regarding `OCC1OC(n2cnc3c(NCc4ccco4)ncnc32)C(O)C1O` (configuration not stated), the GI50 was 1.36 µM and the TGI came to 3.16 µM. For `CC(=O)/C=C/c1ccc(N(CCO)Cc2ccc(C(C)(C)C)cc2)cc1`, the GI50 was 31.1 µM and the TGI is 127 µM.

For the compound `O=C(Nc1ccc(Cl)cc1)N1CCN(c2ccc3nncn3n2)CC1`, the GI50 is 26.9 µM and the TGI stood at 99.3 µM.

The values above are taken from PubChem BioAssay (NCI).
